In publication PMC2858655, “Structural and Functional Characterization of Human Peripheral Nervous System Myelin Protein P2” (PLoS ONE, 2010):

Experiments:
[1] = molecular target: T1, His-tagged P2 protein (His-P2) (Homo sapiens, UniProt P02689); test: intrinsic Trp fluorescence quenching; type: binding; conditions: 9.4 µM protein, 10 µM cholesterol, 1% ethanol, HEPES, 150 mM NaCl, pH 7.5, 120 min, room temperature, excitation 280 nm
T1 construct: gene PMP2; full length, N-terminal His6 tag with TEV site kept (pTH27), E. coli Rosetta(DE3)

[2] = molecular target: T2, human myelin P2 protein (untagged) (Homo sapiens, UniProt P02689); test: X-ray crystallography, […] Å; type: binding; conditions: fatty acid carried over from E. coli, identity modelled from electron density; inside barrel cavity; pH 8.5
T2 construct: gene PMP2

Row | decrease of fluorescence intensity [1] | SMILES | X-ray crystallography, 1.85 Å [2]
1 | ~ 25% | CC(C)CCC[C@@H](C)[C@H]1CC[C@H]2[C@@H]3CC=C4C[C@@H](O)CC[C@]4(C)[C@H]3CC[C@]12C [cholesterol] | –
2 | – | CCCCCCCCCCCCCCCC(=O)O [palmitate] | a palmitate molecule, well-defined in the electron density (Figure 2B,4A), was modeled into the lipid-binding cavity
